Reference: patent EP1077967B1, “BIPHENYL OXO-ACETIC ACIDS USEFUL IN THE TREATMENT OF INSULIN RESISTANCE AND HYPERGLYCEMIA” (Wyeth, priority 1998, dated 1999)
Counter-ions that a name gives are not always drawn.

These molecules were tested against T1, Human recombinant PTP1B (Homo sapiens, UniProt P18031) (assay: Inhibition of tri-phosphorylated insulin receptor dodecaphosphopeptide dephosphorylation by hPTP1B (malachite green)). Conditions: compound at 1 uM.
T1 construct: made in house
T1 sequence (P18031 1-435): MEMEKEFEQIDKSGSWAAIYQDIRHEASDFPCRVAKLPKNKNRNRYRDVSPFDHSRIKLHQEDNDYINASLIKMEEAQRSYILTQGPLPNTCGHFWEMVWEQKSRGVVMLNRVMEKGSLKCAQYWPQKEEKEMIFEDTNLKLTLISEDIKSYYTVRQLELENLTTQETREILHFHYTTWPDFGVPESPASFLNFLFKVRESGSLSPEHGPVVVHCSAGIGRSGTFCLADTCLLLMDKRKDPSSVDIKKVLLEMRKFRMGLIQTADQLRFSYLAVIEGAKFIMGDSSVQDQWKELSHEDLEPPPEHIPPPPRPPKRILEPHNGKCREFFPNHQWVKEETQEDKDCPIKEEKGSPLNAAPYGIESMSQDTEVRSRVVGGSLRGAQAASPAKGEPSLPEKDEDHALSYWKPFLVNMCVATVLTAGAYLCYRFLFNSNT
Type: biochemical
With `O=C(O)[C@@H](Cc1ccccc1)Oc1ccc(-c2ccc(-c3nc4cccnc4n3Cc3ccccc3)cc2)cc1` [Example 69, (2R)-2-[4'-(3-Benzyl-3H-imidazol[4,5-b]pyridin-2-yl)-biphenyl-4-yloxy]-3-phenyl-propionic acid sodium salt] the “change of PTP1B activity (percent of phosphatase control)” value was -20 (1 uM).

Same assay, conditions: compound at 2.5 uM; read-out: change of PTP1B activity (percent of phosphatase control)
In the case of `O=C(O)[C@H](Cc1ccccc1)Oc1ccc(-c2ccc(-c3nc4ccccc4n3Cc3ccccc3)cc2)cc1` [Example 70, (2S)-2-[4'-(1-Benzyl-1H-benzimidazol-2-yl)-biphenyl-4-yloxy]-3-phenyl-propionic acid], the inhibition at 2.5 µM is reported as 41%.

Same assay, conditions: recombinant PTP1B, dodecaphosphopeptide substrate
Work on `O=C(O)COc1ccc(-c2ccc(-c3c(Cc4ccccc4)sc4ccccc34)cc2)cc1Br` [Example 40, [4'-(2-Benzyl-benzo[b]thiophene-3-yl)-3-bromo-biphenyl-4-yloxy]-acetic acid] yielded an IC50 of 362 nM. For `O=C(O)c1ccc(COc2ccc(-c3ccc(-c4c(Cc5ccccc5)oc5ccccc45)cc3)cc2)cc1` [Example 63, 4-[4'-(2-benzyl-benzofuran-3-yl)-biphenyl-4-yloxymethyl]-benzoic acid], the IC50 was 369 nM. In the case of `O=C(O)C(Cc1ccccc1)Oc1ccc(-c2ccc(-c3c(Cc4ccccc4)sc4ccccc34)cc2)cc1-c1ccc(Cl)cc1` (stereo not drawn) [Example 46, (2R')-2-[4-(2-benzyl-benzo[b]thiophene-3-yl)-4"-chloro-[1,1':3',1"]terphenyl-4'-yloxy]-3-phenyl-propionic acid], the IC50 is reported as 52 nM. Molecule `O=C(O)C(Cc1ccccc1)Oc1ccc(-c2ccc(-c3c(C(O)c4ccccc4)oc4ccccc34)cc2)cc1[N+](=O)[O-]` [Example 67, (2R)-2-{4'-[2-(Hydroxy-phenyl-methyl)-benzofuarn-3-yl)-3-nitro-biphenyl-4-yloxy]-3-phenyl-propionic acid] has an IC50 of 103 nM. In the case of `Oc1c(Br)cc(-c2ccc(-c3c(Cc4ccccc4)sc4ccccc34)cc2)cc1Br` [Example 35, 4'-(2-Benzyl-benzo[b]thiophen-3-yl)-3,5-dibromo-biphenyl-4-ol], the IC50 is reported as 454 nM. Molecule `CCCCCC[C@H](Oc1c(Br)cc(-c2ccc(-c3c(Cc4ccccc4)oc4ccccc34)cc2)cc1Br)C(=O)O` [Example 54, (2S)-2-[4'-(2-benzyl-benzofuran-3-yl)-3,5-dibromo-biphenyl-4-yloxy]-octanoic acid] has an IC50 of 23 nM. `O=C(O)[C@H](CCc1ccccc1)Oc1ccc(-c2ccc(-c3c(Cc4ccccc4)oc4ccccc34)cc2)cc1` [Example 47, (2S)-2-[4'-(2-benzyl-benzofuran-3-yl)-biphenyl-4-yloxy]-4-phenyl-butyric acid] was tested, and the IC50 was 225 nM. For `Cc1cc(-c2ccc(-c3c(Cc4ccccc4)oc4ccccc34)cc2)cc(C)c1O[C@H](Cc1ccccc1)C(=O)O` [Example 65, (2R)-2-[4'-(2-Benzyl-benzofuarn-3-yl)-3,5-dimethyl-biphenyl-4-yloxy]-3-phenyl-propionic acid], the IC50 was 74 nM. Work on `O=C(O)COc1c(Br)cc(-c2ccc(-c3c(Cc4ccccc4)sc4ccccc34)cc2)cc1Br` [Example 39, [4'-(2-Benzyl-benzo[b]thiophene-3-yl)-3,5-dibromo-biphenyl-4-yloxy]acetic acid] yielded an IC50 of 105 nM. In the case of `O=C(O)[C@@H](CCN1C(=O)c2ccccc2C1=O)Oc1c(Br)cc(-c2ccc(-c3c(Cc4ccccc4)sc4ccccc34)cc2)cc1Br` [Example 43, (2R)-2-[4'-(2-Benzyl-benzo[b]-thiophen-3-yl)-3,5-dibromo-biphenyl-4-yloxy]-4-(1,3-dioxo-1,3-dihydro-isoindol-2-yl)-butyric acid], the IC50 is reported as 44 nM. With `COc1cccc(-c2cc(-c3ccc(-c4c(Cc5ccccc5)sc5ccccc45)cc3)cc(Br)c2OCC(=O)O)c1` [Example 57] the IC50 was 28 nM. Molecule `O=C(O)COc1ccc(-c2ccc(-c3c(Cc4ccccc4)sc4ccccc34)cc2)cc1-c1ccccc1` [Example 62] has an IC50 of 105 nM. `O=C(O)[C@H](Cc1ccccc1)Oc1ccc(-c2ccc(-c3c(Cc4ccccc4)oc4cccnc34)cc2)cc1` [Example 31, (2S)-2-[4'-(2-Benzyl-furo[2,3]pyridin-3-yl)-biphenyl-4-yloxy]-3-phenyl-propionic acid] gave an IC50 of 590 nM.
